Data: patent US12268777B2, “Compositions and methods for treating eosinophilic disorders” (The Regents of the University of California, priority 2019, dated 2025)

Columns and labels:
[1] = in vivo; cited from earlier work
[2] = system: EoE-derived primary esophageal fibroblasts; experiment: Western immunoblot of pro-fibrotic protein expression in EoE-derived esophageal fibroblasts; type: cell-based, human
Procedure: Reagents, human esophageal tissues, and primary human esophageal fibroblast isolation TGF-β1 (5 ng/mL; R&D Systems, Minneapolis, MN), rosiglitazone (20 μM; Abcam, Boston, MA), pioglitazone (20 μM; Sigma-Aldrich, St. Louis, MO), budesonide (0.1 μM; St. Louis, MO), and IL-4 (10 ng/mL; R&D Systems, Minneapolis, MN) were used in cell culture experiments. […] Active EoE was defined as greater than or equal to 15 eosinophils per hpf. Human organ transplant donor esophagi served as normal controls and were provided by the National Disease Research Interchange and the Arkansas Regional Organ Recovery Agency Control. […]
Adherent cells were washed with ice-cold phosphate-buffered saline containing 1 mM sodium orthovanadate (Na3VO4) and lysed in ice-cold RIPA lysis buffer freshly prepared and supplemented with 1 mM Na3VO4, complete protease inhibitor cocktail, and 2 mM phenylmethylsulfonyl fluoride. […] Equivalent amounts of total proteins were loaded into each well and electrophoresed on NuPAGE 4-12% Bis-Tris gels (Life Technologies, Grand Island, NY), transferred to polyvinylidene difluoride membranes, blocked with 5% bovine serum albumin, incubated with primary antibodies overnight (1:1,000) at 4° C., detected using species-appropriate horseradish peroxidase-conjugated secondary antibodies, and quantified as previously described (Rawson et al., J. Allergy Clin. Immunol., 138:791-800, 2016).

[3] = system: normal esophageal fibroblasts; experiment: Western immunoblot of pro-fibrotic protein expression in normal esophageal fibroblasts; type: cell-based, human; details: 20 μM, N=3
Procedure: Cell culture and stimulation.
Western immunoblot analysis. Adherent cells were washed with ice-cold phosphate-buffered saline containing 1 mM sodium orthovanadate (Na3VO4) and lysed in ice-cold RIPA lysis buffer freshly prepared and supplemented with 1 mM Na3VO4, complete protease inhibitor cocktail, and 2 mM phenylmethylsulfonyl fluoride. Whole cell lysates were centrifuged at 14,000 g for 15 minutes at 4° C.

[4] = system: EoE-derived primary esophageal fibroblasts; experiment: qPCR of pro-fibrotic gene expression in EoE-derived esophageal fibroblasts stimulated with TGF-β1; details: at the concentrations used, up to 20 μM
Procedure: Reagents, human esophageal tissues, and primary human esophageal fibroblast isolation TGF-β1 (5 ng/mL; R&D Systems, Minneapolis, MN), rosiglitazone (20 μM; Abcam, Boston, MA), pioglitazone (20 μM; Sigma-Aldrich, St. Louis, MO), budesonide (0.1 μM; St. Louis, MO), and IL-4 (10 ng/mL; R&D Systems, Minneapolis, MN) were used in cell culture experiments.
Cell culture and stimulation. Human esophageal fibroblast cells were matched as closely as possible for sex, race, and passage. At sub-confluence, cells were serum starved overnight and treated with a TZD, budesonide, a combination, or vehicle for 2-3 hours followed by incubation with TGF-β1 or vehicle.
Preparation of total RNA and cDNA and quantitative PCR. Total RNA from fibroblast cultures was extracted using RNA STAT-60 (Tel-Test, Inc., Friendswood, TX) protocol, and oligo(dT)-primed cDNA was synthesized as previously described using the Qiagen RT-PCR kit and manufacturer's instructions. Quantitative real-time PCR (qPCR) primers are listed in Table 3; qPCR was carried out as previously described using the appropriate gene-specific primers, and relative gene expression was calculated using the method, with glyceraldehyde 3-phosphate dehydrogenase (gapdh) as the housekeeping gene (Rawson et al., J. Allergy Clin. Immunol., 138:791-800, 2016).

[5] = system: nonalcoholic steatohepatitis (NASH); details: compared to placebo; cited from earlier work

Row | SMILES | cardiac effect [1] | basal protein expression of α-sma ([2]; EoE fibroblasts, 20 μM) | TGF-β1-induced protein expression of collagen-1α1 [3] | TGF-β1-induced protein expression of α-sma [3] | toxicity (housekeeper gene expression, responses in normal fibroblasts) [4] | drug-related adverse events [5] | tolerability [5] | TGFβ1-induced protein expression of collagen-1α1 ([2]; EoE fibroblasts from 2 patients, budesonide 0.1 μM)
1 | CN(CCOc1ccc(CC2SC(=O)NC2=O)cc1)c1ccccn1 (stereo not drawn) [rosiglitazone] | myocardial infarction risk was subsequently disproven | did not inhibit | did not inhibit | did not inhibit | not due to toxicity |  |  | 
2 | CCc1ccc(CCOc2ccc(CC3SC(=O)NC3=O)cc2)nc1 (stereo not drawn) [pioglitazone] | cardioprotective effect |  |  |  |  | no major drug-related adverse events | well tolerated | 
3 | CCCC1O[C@@H]2C[C@H]3[C@@H]4CCC5=CC(=O)C=C[C@]5(C)[C@H]4[C@@H](O)C[C@]3(C)[C@]2(C(=O)CO)O1 (stereo partly drawn) [budesonide, 16,17-(butylidenebis(oxy))-11,21-dihydroxy-, (11-β,16-α)-pregna-1,4-diene-3,20-dione] |  |  |  |  |  |  |  | no effects
